Measured values from patent US20260138973A1, “SUBSTITUTED PYRIDINES FOR USE IN TREATING OR PREVENTING INFLAMMATORY DISEASES OR DISEASES ASSOCIATED WITH AN UNDESIRABLE IMMUNE RESPONSE” (SITRYX THERAPEUTICS LIMITED, priority 2022, published 2026).
pEC50, pIC50: −log10 of the molar value. Structures can show the parent of a compound that is named as a salt. Where two headings read alike, the source gives them in different places.

Experiments:
hepatocytes [1] = assay: Hepatocyte stability assay, human; assay type: in vitro ADME
Excerpt: (§1) Defrosted cryo-preserved hepatocytes (viability >70%) were used to determine the metabolic stability of a compound via calculation of intrinsic clearance (Clint; a measure of the removal of a compound from the liver in the absence of blood flow and cell binding). Clearance data are particularly important for in vitro work as they can be used in combination with in vivo data to predict the half-life and oral bioavailability of a drug.
(§2) The metabolic stability in hepatocytes assay involves a time-dependent reaction using both positive and negative controls. The cells were pre-incubated at 37° C. then spiked with test compound (and positive control); samples were taken at pre-determined time intervals and were analysed to monitor the change in concentration of the initial drug compound over 60 minutes. A buffer incubation reaction (with no hepatocytes present) acted as a negative control and two cocktail solutions, containing compounds with known high and low clearance values (verapamil/7-hydroxycoumarin and propranolol/diltiazem), acted as positive controls. • 1. The assay was run with a cell concentration of 0.5×10^6 cells/mL in Leibovitz buffer. • 2. All compounds and controls were run in duplicate. • 3. Compound concentration was 10 μM. • 4. All compounds and controls were incubated with both cells and buffer to show turnover was due to hepatic metabolism. • 5. All wells on the incubation plate had 326.7 μL of either cells or buffer added. • 6. Prior to assay, cell and buffer-only incubation plates were preincubated for 10 mins at 37° C. • 7. The assay was initiated by adding compounds, 3.3 μL of 1 mM in 10% DMSO-90% Buffer; final DMSO concentration was 0.1%. • 8. Samples were taken at regular timepoints (0, 5, 10, 20, 40, 60 min) until 60 mins. • 9. Sample volume was 40 μL and was added to 160 μL of crash solvent (acetonitrile with internal standard) and stored on ice. • 10. At the end of the assay, the crash plates were centrifuged at 3500 rpm for 20 mins at 4° C. • 11. 80 μL of clear supernatant was removed and mixed with 80 μL of deionised water before being analysed by LC-MS/MS.
(§3) Raw LC-MS/MS data was exported to, and analysed in, Microsoft Excel for determination of intrinsic clearance. The percentage remaining of a compound was monitored using the peak area of the initial concentration as 100%. Intrinsic clearance and half-life values were calculated using a graph of the natural log of percentage remaining versus the time of reaction in minutes. Half-life (min) and intrinsic clearance (Clint in μL min^−1 10^−6 cells) values were calculated using the gradient of the graph (the elimination rate constant, k) and Equations 1 and 2.

[2] = Hepatocyte stability assay, human; assay type: in vitro ADME; settings: cryopreserved hepatocytes; Human hepatocytes, 10 μM compound, 0.5×10^6 cells/mL; read-out: T½
Excerpt: as §1, §2, §3

hepatocytes [3] = assay: Hepatocyte stability assay, mouse; assay type: in vitro ADME; settings: 10 μM compound, 0.5×10^6 cells/mL
Excerpt: as §1, §2, §3

IL-1β = assay: THP-1 AlphaLISA IL-1β cytokine inhibition assay (differentiated THP-1 cells, LPS then nigericin); assay type: cell-based; settings: for pIC50: THP-1 cell, PMA-differentiated, LPS 24 hr + nigericin 1 hour; for effectiveness in the IL-1β assay: THP-1 cells, result in words
Method: Measuring Inhibitory Effects on IL-1β Cytokine Output from THP-1s
The cytokine inhibition profiles of compounds of formula (I) were determined in a differentiated THP-1 cell assay. All assays were performed in RPMI-1640 growth medium (Gibco), supplemented with 10% fetal bovine serum (FBS; Gibco), 1% penicillin-streptomycin and 1% sodium pyruvate unless specified otherwise. The IL-1β cytokine inhibition assay was run in a background of differentiated THP-1 cells as described below. All reagents described were from Sigma-Aldrich unless specified otherwise. Compounds were prepared as 10 mM DMSO stocks.
THP-1 cells were expanded as a suspension up to 80% confluence in appropriate growth medium. Cells were harvested, suspended, and treated with an appropriate concentration of phorbol 12-myristate 13-acetate (PMA) over a 72 hr period (37° C./5% CO2).
Following 72 hrs of THP-1 cell incubation, cellular medium was removed and replaced with fresh growth media containing 1% of FBS. Working concentrations of compounds were prepared separately in 10% FBS treated growth medium and pre-incubated with the cells for 30 minutes (37° C./5% CO2). Following the 30 minute compound pre-incubation, THP-1s were treated with an appropriate concentration of LPS and the cells were subsequently incubated for a 24 hr period (37° C./5% CO2). An appropriate final concentration of Nigericin was then dispensed into the THP-1 plates and incubated for 1 hour (37° C./5% CO2) before THP-1 supernatants were harvested and collected in separate polypropylene 96-well holding plates.
Reagents from an IL-1β and IL-6 commercial kit (Perkin Elmer) were prepared and run according to the manufacturer's instructions. Subsequently, fluorescence signal detection in a microplate reader was measured (EnVision® Multilabel Reader, Perkin Elmer).
Percentage inhibition was calculated per cytokine by normalising the sample data to the high and low controls used within each plate (+/−LPS respectively). Percentage inhibition was then plotted against compound concentration and the 50% inhibitory concentration (IC50) was determined from the resultant concentration-response curve.

NRF2 = assay: DiscoverX PathHunter NRF2 translocation assay +/-GSH in U2OS cells; assay type: cell-based; settings: for pEC50: U2OS PathHunter cells, 6 hours, read-out: NRF2 activation EC50; for NRF2 activation Emax: normalised to DMF high control
Method: Potency and efficacy of compounds of formula (I) against the target of interest to activate NRF2 (nuclear factor erythroid 2-related factor 2) were determined using the PathHunter NRF2 translocation kit (DiscoverX). The NRF2 translocation assay was run using an engineered recombinant cell line, utilising enzyme fragment complementation to determine activation of the Keap1-NRF2 protein complex and subsequent translocation of NRF2 into the nucleus. Enzyme activity was quantified using a chemiluminescent substrate consumed following the formation of a functional enzyme upon PK-tagged NRF2 translocation into the nucleus.
The assay was run under both +/−GSH (glutathione) conditions to determine the sensitivity of the compounds' NRF2-activating abilities to attenuation by GSH.
Additionally, a defined concentration of DMF was used as the ‘High’ control to normalise test compound activation responses to.
U2OS PathHunter express cells were thawed from frozen prior to plating. Following plating, U2OS cells were incubated for 24 hrs (37° C./5% CO2) in commercial kit provided cell medium.
Following 24 hrs of U2OS incubation, cells were directly treated with an appropriate final concentration of compound, for −GSH conditions or, for +GSH conditions, an intermediate plate containing 6× working concentrations of compound stocks was prepared in a 6 mM working concentration of GSH solution (solubilised in sterile PBS). Following a 30 minute compound-GSH pre-incubation (37° C./5% CO2) for +GSH treatment, plated U2OS cells were incubated with an appropriate final concentration of compound and GSH.
Following compound (+/−GSH) treatment, the U2OS plates were incubated for a further 6 hours (37° C./5% CO2) before detection reagent from the PathHunter NRF2 commercial kit was prepared and added to test plates according to the manufacturer's instructions. Subsequently, the luminescence signal detection was measured in a microplate reader (PHERAstar®, BMG Labtech).
Percentage activation was calculated by normalising the sample data to the high and low controls used within each plate (+/−DMF). Percentage activation/response was then plotted against compound concentration and the 50% activation concentration (EC50) was determined from the plotted concentration-response curve.

IL-6 = assay: THP-1 AlphaLISA IL-6 cytokine inhibition assay (differentiated THP-1 cells, LPS then nigericin); assay type: cell-based; settings: THP-1 cell, PMA-differentiated, LPS 24 hr + nigericin 1 hour
Method: The cytokine inhibition profiles of compounds of formula (I) were determined in a differentiated THP-1 cell assay. All assays were performed in RPMI-1640 growth medium (Gibco), supplemented with 10% fetal bovine serum (FBS; Gibco), 1% penicillin-streptomycin and 1% sodium pyruvate unless specified otherwise. The IL-1β cytokine inhibition assay was run in a background of differentiated THP-1 cells as described below. All reagents described were from Sigma-Aldrich unless specified otherwise. Compounds were prepared as 10 mM DMSO stocks. THP-1 cells were expanded as a suspension up to 80% confluence in appropriate growth medium. Cells were harvested, suspended, and treated with an appropriate concentration of phorbol 12-myristate 13-acetate (PMA) over a 72 hr period (37° C./5% CO2). Following 72 hrs of THP-1 cell incubation, cellular medium was removed and replaced with fresh growth media containing 1% of FBS. Working concentrations of compounds were prepared separately in 10% FBS treated growth medium and pre-incubated with the cells for 30 minutes (37° C./5% CO2). […] Subsequently, fluorescence signal detection in a microplate reader was measured (EnVision® Multilabel Reader, Perkin Elmer). Percentage inhibition was calculated per cytokine by normalising the sample data to the high and low controls used within each plate (+/−LPS respectively).

[4] = Hepatocyte stability assay, mouse; assay type: in vitro ADME; settings: cryopreserved hepatocytes, 10 μM compound, 0.5×10^6 cells/mL, read-out: T½
Excerpt: as §1, §2, §3

[5] = Human hepatocytes, 10 μM compound, 0.5×10^6 cells/mL

pIC50 (IL-6; Homo sapiens)	SMILES	Clint (hepatocytes [1]; [5])	half-life at 10 μM [2]	Clint (hepatocytes [3])	pIC50 (IL-1β; Homo sapiens)	pEC50 (NRF2; +GSH)	NRF2 activation Emax (NRF2; +GSH)	pEC50 (NRF2; −GSH)	NRF2 activation Emax (NRF2; −GSH)	pIC50 (IL-6)	T½ (hepatocytes [1]; [5])	T½ (hepatocytes [3])	pIC50 (IL-1β)	effectiveness in the IL-1β assay (IL-1β)	stability (intrinsic clearance and half-life) compared to 4-octyl itaconate and 2-(2-chlorobenzyl)acrylic acid (hepatocytes [1]; mouse and/or human cells, result in words)	half-life at 10 μM [4]
	C=C(Cc1ccccc1Cl)C(=O)O [2-(2-chlorobenzyl)acrylic acid, reference compound]	21 μL min^−1 10^−6 cells	59 min	95 μL min^−1 10^−6 cells	< 4.00	< 4.00	9%	< 4.00	2%							
	C=C(CC(=O)OCCCCCCCC)C(=O)O [4-octyl itaconate, reference compound]	401 μL min^−1 10^−6 cells		351 μL min^−1 10^−6 cells		4.54	148%	4.66	165%	4.72	4 min	4 min	4.42			
	C=C(Cc1nc(-c2ccc(OCCCC)nc2)no1)C(=O)O [Example 1, 2-((3-(6-butoxypyridin-3-yl)-1,2,4-oxadiazol-5-yl)methyl)acrylic acid]				< 4.00	4.71	130%	4.68	192.5%					not effective		
	C=C(Cc1nc(-c2ccc(OCCCC)cn2)no1)C(=O)O [Example 2, 2-((3-(5-butoxypyridin-2-yl)-1,2,4-oxadiazol-5-yl)methyl)acrylic acid]				< 4.00									not effective		
	C=C(Cc1nc(-c2ncc(OCCCC)cc2Cl)no1)C(=O)O [Example 3, 2-((3-(5-butoxy-3-chloropyridin-2-yl)-1,2,4-oxadiazol-5-yl)methyl)acrylic acid]	7.18 μL min^−1 10^−6 cells	181 min	133 μL min^−1 10^−6 cells	5.68	4.94	78.58%	4.64	172.5%						more stable	9.27 min
	C=C(Cc1nc(-c2ncc(Oc3ccc(F)cc3)cc2Cl)no1)C(=O)O [Example 4, 2-((3-(3-chloro-5-(4-fluorophenoxy)pyridin-2-yl)-1,2,4-oxadiazol-5-yl)methyl)acrylic acid]				5.67	4.81	145%	5.15	208.56%							
< 4.00	COC(=O)/C=C/C(=O)O [monomethyl fumarate, reference compound]				< 4.00											
